Source: ChEMBL document CHEMBL1155471, “Discovery of potent, balanced and orally active dual NK1/NK3 receptor ligands” (Bioorg Med Chem Lett, 2010)

Experiments:
Neuromedin-K receptor = target: T1, Neuromedin-K receptor (Homo sapiens, UniProt P29371); experiment: Displacement of [3H]SR142801 from human NK3 receptor expressed in HEK293-EBNA cells; assay type: cell-based
T1 sequence (P29371 whole entry): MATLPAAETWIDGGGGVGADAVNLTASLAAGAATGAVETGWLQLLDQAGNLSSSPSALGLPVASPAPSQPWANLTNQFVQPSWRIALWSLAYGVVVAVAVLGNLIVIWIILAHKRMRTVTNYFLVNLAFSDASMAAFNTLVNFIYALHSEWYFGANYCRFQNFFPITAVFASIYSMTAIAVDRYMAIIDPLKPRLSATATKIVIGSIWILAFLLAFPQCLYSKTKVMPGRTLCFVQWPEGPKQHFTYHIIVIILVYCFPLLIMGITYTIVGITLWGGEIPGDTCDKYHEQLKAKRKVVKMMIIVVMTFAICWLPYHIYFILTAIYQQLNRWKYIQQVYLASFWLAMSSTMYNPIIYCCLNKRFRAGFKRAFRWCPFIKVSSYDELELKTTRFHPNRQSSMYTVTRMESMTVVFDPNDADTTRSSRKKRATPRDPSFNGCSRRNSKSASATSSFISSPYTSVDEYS

Substance-P receptor = Substance-P receptor (Homo sapiens, UniProt P25103); experiment: Displacement of [3H]substance P from human NK1 receptor expressed in CHO cells; assay type: cell-based
Meriones unguiculatus [1] = experiment: Inhibition of GR-73632-induced foot tapping behavior in Mongolian gerbil at 10 mg/kg, po administered 2 hrs before GR-73632 challenge; assay type: functional
Meriones unguiculatus [2] = experiment: Inhibition of GR-73632-induced foot tapping behavior in po dosed Mongolian gerbil administered 2 hrs before GR-73632 challenge; assay type: functional; conditions: read-out: ID50 (the source's name)

Chain of Substance-P receptor (P25103 whole entry): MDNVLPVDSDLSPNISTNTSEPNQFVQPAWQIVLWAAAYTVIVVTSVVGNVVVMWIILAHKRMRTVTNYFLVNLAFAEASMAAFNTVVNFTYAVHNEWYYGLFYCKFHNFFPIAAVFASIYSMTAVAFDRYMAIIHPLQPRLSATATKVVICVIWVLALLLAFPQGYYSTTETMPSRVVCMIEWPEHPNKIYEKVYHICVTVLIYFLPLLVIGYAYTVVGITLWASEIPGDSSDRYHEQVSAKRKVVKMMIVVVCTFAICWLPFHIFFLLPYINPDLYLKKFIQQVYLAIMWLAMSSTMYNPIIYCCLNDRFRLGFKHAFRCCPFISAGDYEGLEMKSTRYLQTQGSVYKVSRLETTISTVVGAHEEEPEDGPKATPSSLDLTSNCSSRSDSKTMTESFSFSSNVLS

| SMILES | Ki (Neuromedin-K receptor) | Ki (Substance-P receptor) | inhibition in vivo at 10 mg/kg (Meriones unguiculatus [1]) | ED50 (Meriones unguiculatus [2]) |
| --- | --- | --- | --- | --- |
| CN(C(=O)C(C)(C)c1cc(C(F)(F)F)cc(C(F)(F)F)c1)c1cnc(N2CC[C@H](O)C2)cc1-c1ccccc1Cl | 8.38 nM | 0.86 nM | – | – |
| CCCN(CCO)c1cc(-c2ccccc2Cl)c(N(C)C(=O)C(C)(C)c2cc(C(F)(F)F)cc(C(F)(F)F)c2)cn1 | 5.4 nM | 2.24 nM | 100% | – |
| CN(C(=O)C(C)(C)c1cc(C(F)(F)F)cc(C(F)(F)F)c1)c1cnc(N2C[C@@H](O)C[C@H]2CO)cc1-c1ccccc1Cl | – | – | – | 1.3 mg/kg |
| CN(C(=O)C(C)(C)c1cc(C(F)(F)F)cc(C(F)(F)F)c1)c1cnc(N2CCCC(O)C2)cc1-c1ccccc1Cl (configuration not stated) | 15.1 nM | 1.72 nM | – | – |
| CN(C(=O)C(C)(C)c1cc(C(F)(F)F)cc(C(F)(F)F)c1)c1cnc(N(CCO)CCCO)cc1-c1ccccc1Cl | 0.95 nM | 1.38 nM | – | – |
| CN(C(=O)C(C)(C)c1cc(C(F)(F)F)cc(C(F)(F)F)c1)c1cnc(N2CC[C@@H](O)C2)cc1-c1ccccc1Cl | 6.87 nM | 2.62 nM | – | – |
| CN(C(=O)C(C)(C)c1cc(C(F)(F)F)cc(C(F)(F)F)c1)c1cnc(N2CCC[C@H]2CO)cc1-c1ccccc1Cl | 0.74 nM | 1 nM | – | – |
| CN(CCO)c1cc(-c2ccccc2Cl)c(N(C)C(=O)C(C)(C)c2cc(C(F)(F)F)cc(C(F)(F)F)c2)cn1 | 2.91 nM | 0.78 nM | – | – |
| CN(C(=O)C(C)(C)c1cc(C(F)(F)F)cc(C(F)(F)F)c1)c1cnc(N2C[C@H](O)C[C@H]2CO)cc1-c1ccccc1Cl | 1.12 nM | – | – | 1.1 mg/kg |
| CN(C(=O)C(C)(C)c1cc(C(F)(F)F)cc(C(F)(F)F)c1)c1cnc(NCCO)cc1-c1ccccc1Cl | – | 1.12 nM | – | 1 mg/kg |
| CN(C(=O)C(C)(C)c1cc(C(F)(F)F)cc(C(F)(F)F)c1)c1cnc(N2CCCC[C@H]2CO)cc1-c1ccccc1Cl | 7.72 nM | 11.1 nM | – | – |
| CCN(CCO)c1cc(-c2ccccc2Cl)c(N(C)C(=O)C(C)(C)c2cc(C(F)(F)F)cc(C(F)(F)F)c2)cn1 | 12.2 nM | 3.37 nM | 100% | – |
| CN(C(=O)C(C)(C)c1cc(C(F)(F)F)cc(C(F)(F)F)c1)c1cnc(N2CCC[C@@H]2CO)cc1-c1ccccc1Cl | 7.27 nM | 1.58 nM | – | – |
| COC[C@@H]1C[C@@H](OC)CN1c1cc(-c2ccccc2Cl)c(N(C)C(=O)C(C)(C)c2cc(C(F)(F)F)cc(C(F)(F)F)c2)cn1 | 29.8 nM | 0.91 nM | – | – |
| CN(C(=O)C(C)(C)c1cc(C(F)(F)F)cc(C(F)(F)F)c1)c1cnc(N(CCO)CCO)cc1-c1ccccc1Cl | 0.91 nM | 1.15 nM | – | – |
| CN(C(=O)C(C)(C)c1cc(C(F)(F)F)cc(C(F)(F)F)c1)c1cnc(N2CCCC[C@@H]2CO)cc1-c1ccccc1Cl | 29.7 nM | 2.27 nM | – | – |
| COCCNc1cc(-c2ccccc2Cl)c(N(C)C(=O)C(C)(C)c2cc(C(F)(F)F)cc(C(F)(F)F)c2)cn1 | 93.3 nM | 3.05 nM | – | – |
| CN(C(=O)C(C)(C)c1cc(C(F)(F)F)cc(C(F)(F)F)c1)c1cnc(N2CC[C@H](O)[C@H]2CO)cc1-c1ccccc1Cl | 0.91 nM | 1.58 nM | – | – |
